The source of these data is patent EP1676575A2, “MUCIN PRODUCTION INHIBITOR” (TAIHO PHARMACEUTICAL COMPANY LIMITED, priority 2003, dated 2005).

Structures are written as SMILES.

The subject of one test is NCI-H292 cells. Nature of the test: Mucin production inhibitory action (EGF-stimulated NCI-H292 cells, mucin in culture supernatant by ELISA). In kind it is cell-based, human. Conditions: for inhibition at 1 µM / inhibition at 3 µM / inhibition at 10 µM: Homo sapiens, EGF 25 ng/mL, 48 hours, NCI-H292 cells, read-out: Percent inhibition of mucin production (%); for inhibition at 1 µM: Concentration 1 µM; for inhibition at 3 µM: Concentration 3 µM; for inhibition at 10 µM: Concentration 10 µM; for production of mucin (effect in words): summary of Table 1, EGF-stimulated NCI-H292 cells. As to the method: The test was carried out in accordance with a partially modified method of Takeyama et al. (Proc. Natl. Acad. Sci. USA, Vol. 96, P. 3081-3086, 1999). The specific procedure will be described as follows. NCI-H292 cells, which are human respiratory tract epithelial cell lines, were suspended in a 10%FCS-containing RPMI 1640 culture medium, and disseminated to a 12-well culture plate so that the cell concentration of each well was adjusted to 2 x 10^5 cell/well, followed by culturing for two days. Subsequently, the culture medium was changed to a 0.2%FCS-containing RPMI culture medium, followed by culturing for another two days. The thus-cultured cells were employed in the test. Each test drug and EGF (25 ng/mL) were added to each well, and the mucin level of the supernatant of the culture 48 hours after initiation of culturing was determined through the ELISA method. Percent inhibition (%) with regard to control value was calculated by supposing the difference produced by subtracting normal value from control value to be 100%. In this case, the control value is defined as the mucin amount in the culture supernatant to which only EGF was added, while the normal value is defined as the muchin amount in the culture supernatant containing neither of test drug and EGF. In addition, cilomilast (J. Pharmacol. Exp. Ther., Vol. 284, p. 420-426, 1998) and roflumilast (J. Pharmacol. Exp. Ther., Vol. 297, p. 267-279, 2001), which are typical phosphodiesterase (IV) inhibitors were also tested in a similar manner.

Test [1] has as its system goblet cells in the respiratory tract epithelium. Nature of the test: Inhibitory effect on hyperplasia of goblet cells in the respiratory tract epithelium (Sephadex-induced, PAS staining). In kind it is in vivo, Lewis Wistar rats. The following applies: Fig. 1; oral, once per day for seven days; Sephadex-treated rats; numbers only in the figure. As to the method:
The test was carried out in accordance with a partially modified method of Matsubara et al. (Int. Arch. Allergy Immunol., Vol. 116, p. 67-75, 1998). The specific procedure will be described as follows. To each of the 7-week old male Lewis Wistar rats, a Sephadex suspension (0.1 mg/mL/head) was intravenously administered (total three times: day 0, 2, and 5). Two days after the final administration, the rat was slaughtered by exsanguination under anesthetic with pentobarbital. The lung tissue was extirpated from the rat and immersed in a neutral formalin buffer for fixation. […] The ratio of the PAS-stained positive area to the respiratory tract epithelium was calculated by use of an image analysis software (Winroof). Each test compound was suspended in 0.5% hydroxypropylmethyl cellulose (HPMC), and the suspension was orally administered once per day for continuous seven days from the start of administration of Sephadex. In the Figure, numerical data are represented by mean value ± standard deviation (each group: 11-12 samples).

A further test deals with Brown Norway rats. The test can be described thus: Inhibitory effect on hyper-secretion of respiratory tract mucus (LPS-induced, mucus in BALF by UEA-1 lectin assay). The test is classed as in vivo. Conditions: mean ± standard deviation; for Mucus level of BALF: LPS 100 µg intratracheal, 6 samples; for Percent inhibition (% ): mucus level of BALF vs control and normal. As to the method: The procedure of the test was based on a partially modified method of Tesfaigzi et al. (Am. J. Physiol. Lung Cell Mol. Physiol., Vol. 279, p. L1210-L1217, 2000). The specific procedure will be described as follows. To each of the 7-week male Brown Norway rats, LPS (derived from E. coli., strain 0111: B4) 100 µg was intratracheally administered under anesthetic with ether, thereby inducing inflammation. Two days after administration of LPS, the rat was slaughtered under anesthetic with pentobarbital, and the extirpated respiratory tract was washed with PBS containing 5mM EDTA and 5mM dithiothreitol (3 mL). The amount of mucus contained in the collected BALF was determined through a lectin assay method employing UEA-1. Each test drug was suspended in a 0.5% HPMC, and the suspension was orally administered one hour before administration of LPS and on the following day. In Table 2, numerical data are represented by mean value ± standard deviation (each group: 6 samples). Percent inhibition (%) was calculated in the same way as in Test Example 1.

For `COc1ccc([C@]2(C#N)CC[C@@H](C(=O)O)CC2)cc1OC1CCCC1` [Cilomilast, cilomilast, reference compound], in the test on NCI-H292 cells, the inhibition at 1 µM was -21.4%, the inhibition at 3 µM was -17.2%, the inhibition at 10 µM was -35.2% and the “production of mucin (effect in words)” value is on record as “promoted production of mucin”.
With `COc1ccc(-c2nc3cc(-n4cncn4)ccc3[nH]2)cc1OCC1CC1` [Compound 1], in the test with NCI-H292 cells, the inhibition at 1 µM was determined as 18.1%, the inhibition at 3 µM was found to be 49.4% and the inhibition at 10 µM was 88.6%. Besides, the “hyperplasia of goblet cells (effect in words)” value in test [1] is “inhibitory effect”. Besides, in the test with Brown Norway rats (10 mg/kg oral), the “Mucus level of BALF” value turned out to be 202.4 ± 93.1 ng/mL and the “Percent inhibition (% )” value is on record as 53.2 ± 25.7%. Besides, in the test with Brown Norway rats (30 mg/kg oral), the “Mucus level of BALF” value turned out to be 166.6 ± 43.6 ng/mL and the “Percent inhibition (% )” value worked out at 63.0 ± 12.0%.
In the case of `COc1ccc(-c2nc3cc(-n4cncn4)ccc3[nH]2)cc1OC1CCCC1` [Compound 2], in the test with NCI-H292 cells, the inhibition at 1 µM turned out to be 57.1%, the inhibition at 3 µM is 53.3% and the inhibition at 10 µM is 80.8%.
For `COc1ccc(-c2nc3cc(-n4cncn4)ccc3[nH]2)cc1OC` [Compound 3], in that order: 60%, 74.9% and 83.9%.
As to `COc1cc(-c2nc3cc(-n4cncn4)ccc3[nH]2)ccc1OCC1CC1` [Compound 4], in the test with NCI-H292 cells, the inhibition at 1 µM is 22.7% and the inhibition at 3 µM was found to be 48.8%.
On to `COc1ccc(-c2nc3cc(-n4cncn4)ccc3[nH]2)cc1OCC(C)C` [Compound 6], for which, in the test on NCI-H292 cells, the inhibition at 1 µM amounted to 15.4%, the inhibition at 3 µM was determined as 51.4% and the inhibition at 10 µM stood at 102%.
On to `O=C(Nc1c(Cl)cncc1Cl)c1ccc(OC(F)F)c(OCC2CC2)c1` [Roflumilast, roflumilast, reference compound], for which, in the test with NCI-H292 cells, the inhibition at 1 µM was -37.4%, the inhibition at 3 µM was -28.7%, the inhibition at 10 µM is -16.8% and the “production of mucin (effect in words)” value is on record as “promoted production of mucin”.
